Tested on: 485368-065-R3-J5-PDC spheroids with HUVEC/MSC, viability
Assay: Anticancer human tumor 485368-065-R3-J5-PDC patient-derived pancreatic carcinoma cell line growth inhibition [RAS]
Details: for IC50: curve of first compound; for viability, T/C: stronger effect = lower value
Summary of the method: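 Tumour cells grown as complex spheroids with HUVEC endothelial cells and mesenchymal stem cells, treated with RAS pathway inhibitor combinations. Each agent spans half-log steps from near clinical Cmax, or 10 microM where Cmax is unknown.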
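Note: spheroids exposed to agents for seven days before readout.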

**Q.** For `CC1(C)CCC(Nc2ncc(C(F)(F)F)c(-c3c[nH]c4c(P(C)(C)=O)c(C#N)ccc34)n2)CN1` (configuration not stated) + CCn1c(-c2cccnc2C(C)OC)c2c3cc(ccc31)N1CCOC(CC(NC(=O)C(C(C)C)N(C)C(=O)C3(F)CCN(C(=O)C#CC(C)(C)N(C)C)CC3)C(=O)N3CCCC(N3)C(=O)OCC(C)(C)C2)C1, which IC50 (second compound 0.000949 µM) is on record?
**A.** 0.00904 µM

**Q.** What about the IC50 (second compound 0.003 µM) of the same compound?
**A.** 0.0157 µM

**Q.** What about the IC50 (second compound 0.00949 µM) of the same compound?
**A.** 0.00862 µM

**Q.** And the IC50 (second compound 0.03 µM)?
**A.** 0.00735 µM

**Q.** And the IC50 (second compound 0.0949 µM)?
**A.** 0.0136 µM

**Q.** And the IC50 (second compound 0.3 µM)?
**A.** 0.0176 µM

**Q.** What about the viability, T/C (second compound 0.000949 µM, first compound 0.000949 µM) of the same compound?
**A.** 116%

**Q.** And the viability, T/C (second compound 0.000949 µM, first compound 0.003 µM)?
**A.** 85.7%

**Q.** And the viability, T/C (second compound 0.000949 µM, first compound 0.00949 µM)?
**A.** 48%

**Q.** And the viability, T/C (second compound 0.000949 µM, first compound 0.03 µM)?
**A.** 47.1%

**Q.** And the viability, T/C (second compound 0.000949 µM, first compound 0.0949 µM)?
**A.** 43.6%

**Q.** And the viability, T/C (second compound 0.000949 µM, first compound 0.3 µM)?
**A.** 39.9%

**Q.** And the viability, T/C (second compound 0.003 µM, first compound 0.000949 µM)?
**A.** 109%

**Q.** What about the viability, T/C (second compound 0.003 µM, first compound 0.003 µM) of the same compound?
**A.** 73.9%

**Q.** And the viability, T/C (second compound 0.003 µM, first compound 0.00949 µM)?
**A.** 61%

**Q.** What about the viability, T/C (second compound 0.003 µM, first compound 0.03 µM) of the same compound?
**A.** 40.3%

**Q.** What about the viability, T/C (second compound 0.003 µM, first compound 0.0949 µM) of the same compound?
**A.** 32.7%

**Q.** And the viability, T/C (second compound 0.003 µM, first compound 0.3 µM)?
**A.** 35.9%

**Q.** What about the viability, T/C (second compound 0.00949 µM, first compound 0.000949 µM) of the same compound?
**A.** 107%

**Q.** And the viability, T/C (second compound 0.00949 µM, first compound 0.003 µM)?
**A.** 86.7%

**Q.** What about the viability, T/C (second compound 0.00949 µM, first compound 0.00949 µM) of the same compound?
**A.** 46.6%

**Q.** What about the viability, T/C (second compound 0.00949 µM, first compound 0.03 µM) of the same compound?
**A.** 40.9%

**Q.** And the viability, T/C (second compound 0.00949 µM, first compound 0.0949 µM)?
**A.** 42.5%

**Q.** And the viability, T/C (second compound 0.00949 µM, first compound 0.3 µM)?
**A.** 38.2%

**Q.** And the viability, T/C (second compound 0.03 µM, first compound 0.000949 µM)?
**A.** 108%

**Q.** What about the viability, T/C (second compound 0.03 µM, first compound 0.003 µM) of the same compound?
**A.** 66.1%

**Q.** And the viability, T/C (second compound 0.03 µM, first compound 0.00949 µM)?
**A.** 47.4%

**Q.** And the viability, T/C (second compound 0.03 µM, first compound 0.03 µM)?
**A.** 35.2%

**Q.** What about the viability, T/C (second compound 0.03 µM, first compound 0.0949 µM) of the same compound?
**A.** 38.3%

**Q.** And the viability, T/C (second compound 0.03 µM, first compound 0.3 µM)?
**A.** 45.3%

**Q.** What about the viability, T/C (second compound 0.0949 µM, first compound 0.000949 µM) of the same compound?
**A.** 104%

**Q.** And the viability, T/C (second compound 0.0949 µM, first compound 0.003 µM)?
**A.** 76.2%

**Q.** And the viability, T/C (second compound 0.0949 µM, first compound 0.00949 µM)?
**A.** 54.9%

**Q.** What about the viability, T/C (second compound 0.0949 µM, first compound 0.03 µM) of the same compound?
**A.** 39.9%

**Q.** And the viability, T/C (second compound 0.0949 µM, first compound 0.0949 µM)?
**A.** 39%

**Q.** And the viability, T/C (second compound 0.0949 µM, first compound 0.3 µM)?
**A.** 35.5%

**Q.** What about the viability, T/C (second compound 0.3 µM, first compound 0.000949 µM) of the same compound?
**A.** 102%

**Q.** What about the viability, T/C (second compound 0.3 µM, first compound 0.003 µM) of the same compound?
**A.** 92.3%

**Q.** And the viability, T/C (second compound 0.3 µM, first compound 0.00949 µM)?
**A.** 55.1%

**Q.** What about the viability, T/C (second compound 0.3 µM, first compound 0.03 µM) of the same compound?
**A.** 47%

**Q.** What about the viability, T/C (second compound 0.3 µM, first compound 0.0949 µM) of the same compound?
**A.** 45.6%

**Q.** What about the viability, T/C (second compound 0.3 µM, first compound 0.3 µM) of the same compound?
**A.** 42.6%

From PubChem BioAssay AID2060902 (Molecular Pharmacology Branch, DTP, NCI, 2025)
